Test results from paper PMC9299836 (eLife, 2022).
Where “and” joins values, the source holds several entries; their conditions need not be identical. Identical values can stand only once. Like-named read-outs stand apart in the source and are kept apart here.

Columns and labels:
mGluR2 [1] = molecular target: mGluR2 (Mus musculus, UniProt Q14BI2, A548F); assay: Live-cell FRET, azi-CRD (cysteine-rich domain) sensor in HEK293T cells; conditions: for Normalized FRET response, Mean (azi-CRD agonist DRC): maximal responses normalized to 1mM glutamate
mGluR2 [2] = molecular target: T1, mGluR2 (Mus musculus, UniProt Q14BI2); assay: Live-cell FRET, SNAP-m2 (VFT domain) inter-subunit sensor in HEK293T cells; conditions: for Normalized FRET response, Mean (SNAP-m2 agonist DRC): maximal responses normalized to 1mM glutamate;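 on all read-outs here: apparent FRET efficiency from whole-membrane ROIs of single cells, corrected for donor bleed-through and background, ΔFRET as treatment minus pretreatment signal, recorded at room temperature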
mGluR2 [3] = molecular target: mGluR2 (Mus musculus, UniProt Q14BI2, INS715F); assay: Live-cell FRET, azi-ECL2 (7TM domain, extracellular loop 2) sensor in HEK293T cells;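 further: Cy3/Cy5 click-labeled sensor, whole-membrane ROIs per cell, apparent FRET after bleed-through correction, ΔFRET as treatment minus pre-treatment signal, at room temperature, at least three biological replicates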
mGluR2 [4] = molecular target: T1, mGluR2; assay: Functional calcium imaging, SNAP-mGluR2 (no FLAG-tag) with chimeric G protein Gqo5 in HEK293T cells; format: cell-based; design: Full length mGluR2 construct with an amber codon (TAG) mutation of amino acid A548 (azi-CRD) or N-terminal SNAP-tag (SNAP-mGluR2); host or cells: HEK293T; conditions: for Intracellular Ca2+ response, Mean / Intracellular Ca2+ response: normalized to 1mM glutamate; for Intracellular Ca2+ response: single experiments

Sequence of mGluR2 (Mus musculus, UniProt Q14BI2, INS715F) (Q14BI2 with tags, fused parts or gaps INS715F): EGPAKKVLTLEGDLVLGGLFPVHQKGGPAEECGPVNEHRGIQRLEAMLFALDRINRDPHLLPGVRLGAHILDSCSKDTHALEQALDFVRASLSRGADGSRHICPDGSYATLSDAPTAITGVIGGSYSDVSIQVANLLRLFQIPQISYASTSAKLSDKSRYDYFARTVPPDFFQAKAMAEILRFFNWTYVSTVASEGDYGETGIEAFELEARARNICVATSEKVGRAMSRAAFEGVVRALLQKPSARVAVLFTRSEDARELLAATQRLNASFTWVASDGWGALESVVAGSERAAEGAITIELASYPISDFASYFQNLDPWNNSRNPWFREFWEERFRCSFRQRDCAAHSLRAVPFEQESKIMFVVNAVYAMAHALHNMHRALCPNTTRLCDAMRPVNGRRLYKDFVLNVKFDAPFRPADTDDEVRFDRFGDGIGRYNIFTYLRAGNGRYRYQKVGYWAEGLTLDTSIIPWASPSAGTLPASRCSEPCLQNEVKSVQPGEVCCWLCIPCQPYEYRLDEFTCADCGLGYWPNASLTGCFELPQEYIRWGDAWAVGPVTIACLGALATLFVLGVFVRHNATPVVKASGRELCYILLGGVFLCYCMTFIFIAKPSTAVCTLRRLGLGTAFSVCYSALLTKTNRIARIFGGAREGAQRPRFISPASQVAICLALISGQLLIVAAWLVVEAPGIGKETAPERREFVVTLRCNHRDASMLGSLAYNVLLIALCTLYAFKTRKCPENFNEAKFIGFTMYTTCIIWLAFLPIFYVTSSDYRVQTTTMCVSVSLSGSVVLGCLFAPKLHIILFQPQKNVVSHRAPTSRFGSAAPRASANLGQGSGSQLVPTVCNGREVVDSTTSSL
Sequence of mGluR2 (Mus musculus, UniProt Q14BI2, A548F) (Q14BI2 19-872 A548F): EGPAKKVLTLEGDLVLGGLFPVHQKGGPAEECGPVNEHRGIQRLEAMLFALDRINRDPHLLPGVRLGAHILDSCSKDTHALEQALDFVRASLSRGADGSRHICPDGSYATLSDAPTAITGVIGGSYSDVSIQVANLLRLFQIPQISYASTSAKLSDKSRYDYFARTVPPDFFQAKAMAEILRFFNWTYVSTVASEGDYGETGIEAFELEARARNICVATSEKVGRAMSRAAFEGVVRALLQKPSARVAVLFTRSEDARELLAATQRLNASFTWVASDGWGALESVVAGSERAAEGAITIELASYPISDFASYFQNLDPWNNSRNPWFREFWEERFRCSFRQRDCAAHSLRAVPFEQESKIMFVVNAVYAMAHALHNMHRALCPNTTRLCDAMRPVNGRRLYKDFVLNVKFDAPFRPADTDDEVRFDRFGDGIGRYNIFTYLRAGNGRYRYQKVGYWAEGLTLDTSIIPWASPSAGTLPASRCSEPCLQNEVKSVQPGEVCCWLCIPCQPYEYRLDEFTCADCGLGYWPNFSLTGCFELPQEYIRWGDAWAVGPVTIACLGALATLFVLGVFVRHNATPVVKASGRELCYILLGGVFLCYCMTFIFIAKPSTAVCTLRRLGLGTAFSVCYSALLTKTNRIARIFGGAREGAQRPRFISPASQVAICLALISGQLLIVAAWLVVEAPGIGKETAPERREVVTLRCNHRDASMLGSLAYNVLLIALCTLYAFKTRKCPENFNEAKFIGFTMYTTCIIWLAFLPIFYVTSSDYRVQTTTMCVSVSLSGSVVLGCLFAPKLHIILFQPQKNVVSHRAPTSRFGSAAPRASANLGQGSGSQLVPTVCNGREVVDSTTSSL
T1 sequence (Q14BI2 19-872): as the sequence (Q14BI2 19-872 A548F) above, with F530A counted along it

Compound: N[C@@]1(C(=O)O)CN[C@@H](C(=O)O)C1 [(2R,4R)-APDC]
- Hill slope (mGluR2 [1]; azi-CRD sensor, orthosteric agonist alone): 1.10
- Live-cell FRET max response normalized to 1mM glutamate (mGluR2 [1]; azi-CRD sensor, (2R,4R)-APDC, individual values (N=13)): 1.025 and 1.046 and 1.029 and 1.018 and 1.041 and 0.9926 and 1.05 and 1.031 and 1.033 and 1.059 and 0.9828 and 0.9967 and 0.9994
- Mean max response (normalized max ΔFRET) (mGluR2 [1]; azi-CRD, agonist alone (1 mM glutamate, 100 μM DCG-IV, 20 μM LY379268, 100 μM APDC), normalized to 1 mM glutamate): 1.02
- Normalized Max ΔFRET (mGluR2 [1]; azi-CRD, 100μM agonist, individual cells, normalized to 1mM glutamate): 105.882 and 99.2629 and 105.009 and 103.1 and 103.252 and 98.2759 and 99.67 and 99.937 and 102.531 and 104.556 and 102.893 and 101.835 and 104.136
- Normalized Max ΔFRET, Mean (mGluR2 [1]; azi-CRD, 100μM agonist, mean of cells, normalized to 1mM glutamate): 102.334
- Normalized FRET response, Mean (azi-CRD agonist DRC) (mGluR2 [1]; log[ligand] (M) -4): 1.023
- Normalized FRET response, Mean (azi-CRD agonist DRC) (mGluR2 [1]; log[ligand] (M) -4.1549): 1.003
- Normalized FRET response, Mean (azi-CRD agonist DRC) (mGluR2 [1]; log[ligand] (M) -4.52288): 0.929
- Normalized FRET response, Mean (azi-CRD agonist DRC) (mGluR2 [1]; log[ligand] (M) -5): 0.7432
- Normalized FRET response, Mean (azi-CRD agonist DRC) (mGluR2 [1]; log[ligand] (M) -5.39794): 0.4945
- Normalized FRET response, Mean (azi-CRD agonist DRC) (mGluR2 [1]; log[ligand] (M) -5.82391): 0.2779
- Normalized FRET response, Mean (azi-CRD agonist DRC) (mGluR2 [1]; log[ligand] (M) -6.52288): 0.07413
- Normalized FRET response, Mean (azi-CRD agonist DRC) (mGluR2 [1]; log[ligand] (M) -7): 0
- EC50 (mGluR2 [1]; read-out: Mean half-maximum effective concentration (EC50), azi-CRD sensor, orthosteric agonist alone): 6.5 µM
- Mean max response (normalized max ΔFRET) (mGluR2 [2]; SNAP-m2 (VFT), agonist alone (1 mM glutamate, 100 μM DCG-IV, 20 μM LY379268, 100 μM APDC), normalized to 1 mM glutamate): 0.96
- Normalized Max ΔFRET (mGluR2 [2]; SNAP-m2, 100μM agonist, individual cells, normalized to 1mM glutamate): 103.479 and 93.3266 and 93.5994 and 94.2433 and 93.7977 and 94.1947 and 102.7 and 100.974 and 101.936 and 101.611 and 93.0019 and 94.3775 and 90.2119 and 91.2088
- Normalized Max ΔFRET, Mean (mGluR2 [2]; SNAP-m2, 100μM agonist, mean of cells, normalized to 1mM glutamate): 96.333
- Hill slope (mGluR2 [2]; SNAP-m2 sensor, orthosteric agonist alone): –1.10
- Live-cell FRET max response normalized to 1mM glutamate (mGluR2 [2]; SNAP-m2 sensor, (2R,4R)-APDC, individual values (N=14)): 1.016 and 0.93 and 0.9438 and 0.9021 and 0.9121 and 0.9333 and 0.936 and 0.9424 and 0.938 and 0.9419 and 1.035 and 1.027 and 1.01 and 1.019
- Normalized FRET response, Mean (SNAP-m2 agonist DRC) (mGluR2 [2]; log[ligand] (M) -4): -0.9633
- Normalized FRET response, Mean (SNAP-m2 agonist DRC) (mGluR2 [2]; log[ligand] (M) -4.52288): -0.8729
- Normalized FRET response, Mean (SNAP-m2 agonist DRC) (mGluR2 [2]; log[ligand] (M) -5): -0.684
- Normalized FRET response, Mean (SNAP-m2 agonist DRC) (mGluR2 [2]; log[ligand] (M) -5.39794): -0.4889
- Normalized FRET response, Mean (SNAP-m2 agonist DRC) (mGluR2 [2]; log[ligand] (M) -6): -0.1727
- Normalized FRET response, Mean (SNAP-m2 agonist DRC) (mGluR2 [2]; log[ligand] (M) -6.52288): -0.05437
- Normalized FRET response, Mean (SNAP-m2 agonist DRC) (mGluR2 [2]; log[ligand] (M) -7): 0
- Normalized FRET response, Mean (SNAP-m2 agonist DRC) (mGluR2 [2]; log[ligand] (M) -7.69897): 0
- EC50 (mGluR2 [2]; read-out: Live-cell FRET titration EC50, SNAP-m2, agonist alone, individual experiments): 2.88 µM and 3.03 µM and 3.16 µM and 22.1 µM and 5.53 µM and 4.87 µM
- EC50 (mGluR2 [2]; read-out: Mean half-maximum effective concentration (EC50), SNAP-m2 sensor, orthosteric agonist alone): 6.9 µM
- Mean max response (normalized max ΔFRET) (mGluR2 [3]; azi-ECL2, agonist alone (1 mM glutamate, 100 μM DCG-IV, 20 μM LY379268, 100 μM APDC), normalized to 1 mM glutamate): 1.05
- Normalized ΔFRET response, Mean (agonist DRC) (mGluR2 [3]; azi-ECL2, log[agonist] (M) -4, normalized to 1 mM glutamate): 1.046
- Normalized ΔFRET response, Mean (agonist DRC) (mGluR2 [3]; azi-ECL2, log[agonist] (M) -4.1549, normalized to 1 mM glutamate): 1.0205
- Normalized ΔFRET response, Mean (agonist DRC) (mGluR2 [3]; azi-ECL2, log[agonist] (M) -4.52288, normalized to 1 mM glutamate): 0.9248
- Normalized ΔFRET response, Mean (agonist DRC) (mGluR2 [3]; azi-ECL2, log[agonist] (M) -5, normalized to 1 mM glutamate): 0.7108
- Normalized ΔFRET response, Mean (agonist DRC) (mGluR2 [3]; azi-ECL2, log[agonist] (M) -5.39794, normalized to 1 mM glutamate): 0.4486
- Normalized ΔFRET response, Mean (agonist DRC) (mGluR2 [3]; azi-ECL2, log[agonist] (M) -5.82391, normalized to 1 mM glutamate): 0.2358
- Normalized ΔFRET response, Mean (agonist DRC) (mGluR2 [3]; azi-ECL2, log[agonist] (M) -6.52288, normalized to 1 mM glutamate): 0.04024
- Normalized ΔFRET response, Mean (agonist DRC) (mGluR2 [3]; azi-ECL2, log[agonist] (M) -7, normalized to 1 mM glutamate): 0
- Normalized Max ΔFRET, Mean (mGluR2 [3]; azi-ECL2, 100μM agonist, mean of cells, normalized to 1mM glutamate): 104.617
- Hill slope (mGluR2 [3]; azi-ECL2 sensor, orthosteric agonist alone): 1.14
- EC50 (mGluR2 [3]; read-out: EC50, live-cell FRET titration, azi-ECL2 sensor, (2R,4R)-APDC, individual cell values (N=13)): 8.97 µM and 10.9 µM and 18.9 µM and 4.32 µM and 2.57 µM and 2.14 µM and 6.27 µM and 6.18 µM and 3.15 µM and 4.64 µM and 4.05 µM and 5.53 µM
- EC50 (mGluR2 [3]; read-out: Mean half-maximum effective concentration (EC50), azi-ECL2 sensor, orthosteric agonist alone): 6.7 µM
- Normalized Max Intracellular Ca2+ Response, individual experiments (mGluR2 [4]; 100 μM DCG-IV, 10 μM LY379268, 300 μM APDC, normalized to 1 mM glutamate, single replicate): 1.151 and 1.196 and 0.9567
- Normalized Max Intracellular Ca2+ Response, mean (mGluR2 [4]; 1 mM Glu, 100 μM DCG-IV, 10 μM LY379268, 300 μM APDC, normalized to 1 mM glutamate): 1.101
- Intracellular Ca2+ response, Mean (mGluR2 [4]; log[agonist] (M) -3.52288): 1.101
- Intracellular Ca2+ response (mGluR2 [4]; log[agonist] (M) -3.52288): 1.101
- Intracellular Ca2+ response, Mean (mGluR2 [4]; log[agonist] (M) -3.82391): 1.121
- Intracellular Ca2+ response (mGluR2 [4]; log[agonist] (M) -3.82391): 1.13 and 1.129 and 1.105
- Intracellular Ca2+ response, Mean (mGluR2 [4]; log[agonist] (M) -4): 1.103
- Intracellular Ca2+ response (mGluR2 [4]; log[agonist] (M) -4): 1.155 and 1.085 and 1.068
- Intracellular Ca2+ response, Mean (mGluR2 [4]; log[agonist] (M) -4.52288): 0.9624
- Intracellular Ca2+ response (mGluR2 [4]; log[agonist] (M) -4.52288): 0.9835 and 0.9555 and 0.9483
- Intracellular Ca2+ response, Mean (mGluR2 [4]; log[agonist] (M) -5): 0.7274
- Intracellular Ca2+ response (mGluR2 [4]; log[agonist] (M) -5): 0.6253 and 0.7115 and 0.8453
- Intracellular Ca2+ response, Mean (mGluR2 [4]; log[agonist] (M) -5.39794): 0.3932
- Intracellular Ca2+ response (mGluR2 [4]; log[agonist] (M) -5.39794): 0.2825 and 0.3895 and 0.5075
- Intracellular Ca2+ response, Mean (mGluR2 [4]; log[agonist] (M) -6): 0
- Intracellular Ca2+ response (mGluR2 [4]; log[agonist] (M) -6): 0
- Intracellular Ca2+ response, Mean (mGluR2 [4]; log[agonist] (M) -6.52288): 0
- Intracellular Ca2+ response (mGluR2 [4]; log[agonist] (M) -6.52288): 0
- Intracellular Ca2+ response, Mean (mGluR2 [4]; log[agonist] (M) -7): 0
- Intracellular Ca2+ response (mGluR2 [4]; log[agonist] (M) -7): 0
- Intracellular Ca2+ response, Mean (mGluR2 [4]; log[agonist] (M) -7.69897): 0
- Intracellular Ca2+ response (mGluR2 [4]; log[agonist] (M) -7.69897): 0
- Intracellular Ca2+ response, Mean (mGluR2 [4]; log[agonist] (M) -8): 0
- Intracellular Ca2+ response (mGluR2 [4]; log[agonist] (M) -8): 0
- EC50 (mGluR2 [4]; one value per experiment, read-out: EC50, intracellular Ca2+ response): 4.48 µM and 8.58 µM and 6.56 µM
